Results from ChEMBL document CHEMBL4229379, “Synthesis and structure-activity relationship of novel bisindole amidines active against MDR Gram-positive and Gram-negative bacteria” (Eur J Med Chem, 2018).
Values after ≈ are worked out from the molar mass of the structure shown.

Legend:
[1] = test system: Enterococcus faecium; assay: Antibacterial activity against vancomycin-sensitive Enterococcus faecium 12-3 after 18 hrs by CLSI broth microdilution method; assay type: functional; details: 12-3, 18 h
[2] = test system: Enterococcus faecalis; assay: Antibacterial activity against vancomycin-sensitive Enterococcus faecalis 12-5 after 18 hrs by CLSI broth microdilution method; assay type: functional; details: 12-5, 18 h
[3] = test system: Enterobacter cloacae; assay: Antibacterial activity against Enterobacter cloacae ATCC 43560 after 18 hrs by CLSI broth microdilution method; assay type: functional; details: ATCC 43560, 18 h
[4] = test system: Klebsiella aerogenes; assay: Antibacterial activity against Enterobacter aerogenes ATCC 13048 after 18 hrs by CLSI broth microdilution method; assay type: functional; details: ATCC 13048, 18 h
[5] = test system: Klebsiella pneumoniae; assay: Antibacterial activity against extended-spectrum beta-lactamase harboring Klebsiella pneumoniae 12-8 after 18 hrs by CLSI broth microdilution method; assay type: functional; details: 12-8, 18 h
[6] = test system: Acinetobacter calcoaceticus; assay: Antibacterial activity against Acinetobacter calcoaceticus ATCC 19606 after 18 hrs by CLSI broth microdilution method; assay type: functional; details: ATCC 19606, 18 h
[7] = test system: Serratia marcescens; assay: Antibacterial activity against Serratia marcescens ATCC 21074 after 18 hrs by CLSI broth microdilution method; assay type: functional; details: ATCC 21074, 18 h
[8] = test system: Pseudomonas aeruginosa; assay: Antibacterial activity against Pseudomonas aeruginosa PAO1 after 18 hrs by CLSI broth microdilution method; assay type: functional; details: PAO1, 18 h
[9] = test system: Klebsiella pneumoniae; assay: Antibacterial activity against extended-spectrum beta-lactamase deficient Klebsiella pneumoniae 7 after 18 hrs by CLSI broth microdilution method; assay type: functional; details: Klebsiella pneumoniae, 7, 18 h
[10] = test system: Staphylococcus aureus; assay: Antibacterial activity against methicillin-resistant Staphylococcus aureus 12-33 after 18 hrs by CLSI broth microdilution method; assay type: functional; details: 12-33, 18 h
[11] = test system: Proteus mirabilis; assay: Antibacterial activity against Proteus mirabilis 12-6 after 18 hrs by CLSI broth microdilution method; assay type: functional; details: 12-6, 18 h
[12] = test system: Escherichia coli; assay: Antibacterial activity against extended-spectrum beta-lactamase harboring Escherichia coli 12-15 after 18 hrs by CLSI broth microdilution method; assay type: functional; details: 12-15, 18 h
[13] = test system: Proteus vulgaris; assay: Antibacterial activity against Proteus vulgaris ATCC 29905 after 18 hrs by CLSI broth microdilution method; assay type: functional; details: ATCC 29905, 18 h
[14] = test system: Enterococcus faecium; assay: Antibacterial activity against vancomycin-resistant Enterococcus faecium ATCC 700221 after 18 hrs by CLSI broth microdilution method; assay type: functional; details: ATCC 700221, 18 h
[15] = test system: Staphylococcus epidermidis; assay: Antibacterial activity against methicillin-sensitive Staphylococcus epidermidis 12-6 after 18 hrs by CLSI broth microdilution method; assay type: functional; details: 12-6, 18 h
[16] = test system: Staphylococcus epidermidis; assay: Antibacterial activity against methicillin-resistant Staphylococcus epidermidis 12-8 after 18 hrs by CLSI broth microdilution method; assay type: functional; details: 12-8, 18 h
[17] = test system: Escherichia coli; assay: Antibacterial activity against extended-spectrum beta-lactamase deficient Escherichia coli 12-14 after 18 hrs by CLSI broth microdilution method; assay type: functional; details: 12-14, 18 h
[18] = test system: Klebsiella pneumoniae; assay: Antibacterial activity against new delhi metallo-beta-lactamase-1 harboring Klebsiella pneumoniae ATCC BAA-2146 after 18 hrs by CLSI broth microdilution method; assay type: functional; details: ATCC BAA-2146, 18 h
[19] = test system: Staphylococcus aureus; assay: Antibacterial activity against methicillin-sensitive Staphylococcus aureus 15 after 18 hrs by CLSI broth microdilution method; assay type: functional; details: Staphylococcus aureus, 15, 18 h
[20] = test system: Klebsiella pneumoniae; assay: Antibacterial activity against extended-spectrum beta-lactamase deficient Klebsiella pneumoniae 12-4 after 18 hrs by CLSI broth microdilution method; assay type: functional; details: 12-4, 18 h
[21] = test system: Staphylococcus aureus; assay: Antibacterial activity against methicillin-resistant Staphylococcus aureus ATCC 33591 after 18 hrs by CLSI broth microdilution method; assay type: functional; details: ATCC 33591, 18 h
[22] = test system: Enterococcus faecalis; assay: Antibacterial activity against vancomycin-resistant Enterococcus faecalis ATCC 51299 after 18 hrs by CLSI broth microdilution method; assay type: functional; details: ATCC 51299, 18 h
[23] = test system: Escherichia coli; assay: Antibacterial activity against extended-spectrum beta-lactamase deficient Escherichia coli 1515 after 18 hrs by CLSI broth microdilution method; assay type: functional; details: Escherichia coli, 1515, 18 h
[24] = test system: Staphylococcus epidermidis; assay: Antibacterial activity against methicillin-sensitive Staphylococcus epidermidis ATCC 12228 after 18 hrs by CLSI broth microdilution method; assay type: functional; details: ATCC 12228, 18 h
[25] = test system: Providencia rettgeri; assay: Antibacterial activity against Providencia rettgeri ATCC 31052 after 18 hrs by CLSI broth microdilution method; assay type: functional; details: ATCC 31052, 18 h
[26] = test system: Escherichia coli; assay: Antibacterial activity against extended-spectrum beta-lactamase deficient Escherichia coli ATCC 25922 after 18 hrs by CLSI broth microdilution method; assay type: functional; details: ATCC 25922, 18 h
[27] = test system: Staphylococcus aureus; assay: Antibacterial activity against methicillin-sensitive Staphylococcus aureus ATCC 29213 after 18 hrs by CLSI broth microdilution method; assay type: functional; details: ATCC 29213, 18 h
[28] = test system: Enterococcus faecalis; assay: Antibacterial activity against vancomycin-sensitive Enterococcus faecalis ATCC 29212 after 18 hrs by CLSI broth microdilution method; assay type: functional; details: ATCC 29212, 18 h
[29] = Cytotoxicity against HEK293T cells assessed as reduction in cell viability after 48 hrs by MTS assay; assay type: cell-based, HEK-293T; details: human
[30] = test system: Pseudomonas aeruginosa; assay: Antibacterial activity against Pseudomonas aeruginosa 12-16 after 18 hrs by CLSI broth microdilution method; assay type: functional; details: 12-16, 18 h
[31] = test system: Klebsiella pneumoniae; assay: Antibacterial activity against extended-spectrum beta-lactamase harboring Klebsiella pneumoniae ATCC 700603 after 18 hrs by CLSI broth microdilution method; assay type: functional; details: Klebsiella pneumoniae, 700603, 18 h
[32] = test system: Enterococcus faecium; assay: Antibacterial activity against vancomycin-resistant Enterococcus faecium 12-1 after 18 hrs by CLSI broth microdilution method; assay type: functional; details: 12-1, 18 h
[33] = test system: Enterococcus faecalis; assay: Antibacterial activity against vancomycin-resistant Enterococcus faecalis 09-9 after 18 hrs by CLSI broth microdilution method; assay type: functional; details: 09-9, 18 h
[34] = test system: Staphylococcus aureus; assay: Antibacterial activity against methicillin-sensitive Staphylococcus aureus 12-28 after 18 hrs by CLSI broth microdilution method; assay type: functional; details: 12-28, 18 h
[35] = test system: Stenotrophomonas maltophilia; assay: Antibacterial activity against Stenotrophomonas maltophilia ATCC 13636 after 18 hrs by CLSI broth microdilution method; assay type: functional; details: ATCC 13636, 18 h
[36] = test system: Citrobacter freundii; assay: Antibacterial activity against Citrobacter freundii ATCC 43864 after 18 hrs by CLSI broth microdilution method; assay type: functional; details: ATCC 43864, 18 h
[37] = test system: Pseudomonas aeruginosa; assay: Antibacterial activity against Pseudomonas aeruginosa ATCC 27853 after 18 hrs by CLSI broth microdilution method; assay type: functional; details: ATCC 27853, 18 h

SMILES | MIC [1] [µg/mL] | MIC [2] [µg/mL] | MIC [3] [µg/mL] | MIC [4] [µg/mL] | MIC [5] [µg/mL] | MIC [6] [µg/mL] | MIC [7] [µg/mL] | MIC [8] [µg/mL] | MIC [9] [µg/mL] | MIC [10] [µg/mL] | MIC [11] [µg/mL] | MIC [12] [µg/mL] | MIC [13] [µg/mL] | MIC [14] [µg/mL] | MIC [15] [µg/mL] | MIC [16] [µg/mL] | MIC [17] [µg/mL] | MIC [18] [µg/mL] | MIC [19] [µg/mL] | MIC [20] [µg/mL] | other results
CCC(CC)NC(=N)c1ccc2cc(-c3ccc(-c4cc5ccc(C(=N)NC(CC)CC)cc5[nH]4)cc3)[nH]c2c1 | 2 (≈ 3.75 µM) | 4 (≈ 7.51 µM) | 8 (≈ 15 µM) | 8 (≈ 15 µM) | 8 (≈ 15 µM) | 16 (≈ 30 µM) | 32 (≈ 60.1 µM) | 64 (≈ 120 µM) | 8 (≈ 15 µM) | 1 (≈ 1.88 µM) | 16 (≈ 30 µM) | 8 (≈ 15 µM) | 8 (≈ 15 µM) | 2 (≈ 3.75 µM) | 0.5 (≈ 0.939 µM) | 0.5 (≈ 0.939 µM) | 8 (≈ 15 µM) | 8 (≈ 15 µM) | 2 (≈ 3.75 µM) | 8 (≈ 15 µM) | MIC [21]: 1 µg/mL (≈ 1.88 µM); MIC [22]: 4 µg/mL (≈ 7.51 µM); MIC [23]: 8 µg/mL (≈ 15 µM); MIC [24]: 0.5 µg/mL (≈ 0.939 µM); MIC [25]: 8 µg/mL (≈ 15 µM); MIC [26]: 8 µg/mL (≈ 15 µM); MIC [27]: 1 µg/mL (≈ 1.88 µM); MIC [28]: 2 µg/mL (≈ 3.75 µM); CC50 at 48 h [29]: 3.42 µg/mL (≈ 6.41 µM); MIC [30]: 32 µg/mL (≈ 60.1 µM); MIC [31]: 16 µg/mL (≈ 30 µM); MIC [32]: 2 µg/mL (≈ 3.75 µM); MIC [33]: 4 µg/mL (≈ 7.51 µM); MIC [34]: 2 µg/mL (≈ 3.75 µM); MIC [35]: 16 µg/mL (≈ 30 µM); MIC [36]: 8 µg/mL (≈ 15 µM); MIC [37]: 16 µg/mL (≈ 30 µM)
CNC(=N)c1ccc2cc(-c3ccc(-c4cc5ccc(C(=N)NC)cc5[nH]4)cc3)[nH]c2c1 | 2 (≈ 4.76 µM) | 2 (≈ 4.76 µM) | 8 (≈ 19 µM) | 16 (≈ 38 µM) | 32 (≈ 76.1 µM) | 128 (≈ 304 µM) | 64 (≈ 152 µM) | 64 (≈ 152 µM) | 16 (≈ 38 µM) | 0.25 (≈ 0.595 µM) | 64 (≈ 152 µM) | 8 (≈ 19 µM) | 64 (≈ 152 µM) | 0.5 (≈ 1.19 µM) | 0.12 (≈ 0.285 µM) | 0.25 (≈ 0.595 µM) | 8 (≈ 19 µM) | 64 (≈ 152 µM) | 0.25 (≈ 0.595 µM) | 32 (≈ 76.1 µM) | MIC [21]: 0.25 µg/mL (≈ 0.595 µM); MIC [22]: 2 µg/mL (≈ 4.76 µM); MIC [23]: 16 µg/mL (≈ 38 µM); MIC [24]: 0.12 µg/mL (≈ 0.285 µM); MIC [25]: 64 µg/mL (≈ 152 µM); MIC [26]: 4 µg/mL (≈ 9.51 µM); MIC [27]: 0.25 µg/mL (≈ 0.595 µM); MIC [28]: 2 µg/mL (≈ 4.76 µM); CC50 at 48 h [29]: 28 µg/mL (≈ 66.6 µM); MIC [30]: 64 µg/mL (≈ 152 µM); MIC [31]: 64 µg/mL (≈ 152 µM); MIC [32]: 0.5 µg/mL (≈ 1.19 µM); MIC [33]: 1 µg/mL (≈ 2.38 µM); MIC [34]: 0.25 µg/mL (≈ 0.595 µM); MIC [35]: 16 µg/mL (≈ 38 µM); MIC [36]: 16 µg/mL (≈ 38 µM); MIC [37]: 16 µg/mL (≈ 38 µM)
CN(C)C(=N)c1ccc2cc(-c3ccc(Oc4ccc(-c5cc6ccc(C(=N)N(C)C)cc6[nH]5)cc4)cc3)[nH]c2c1 | 2 (≈ 3.7 µM) | 2 (≈ 3.7 µM) | 64 (≈ 118 µM) | 8 (≈ 14.8 µM) | 8 (≈ 14.8 µM) | > 128 | 32 (≈ 59.2 µM) | > 128 | 8 (≈ 14.8 µM) | 0.25 (≈ 0.462 µM) | 32 (≈ 59.2 µM) | 8 (≈ 14.8 µM) | 8 (≈ 14.8 µM) | 2 (≈ 3.7 µM) | 0.25 (≈ 0.462 µM) | 0.25 (≈ 0.462 µM) | 8 (≈ 14.8 µM) | 8 (≈ 14.8 µM) | 0.25 (≈ 0.462 µM) | 8 (≈ 14.8 µM) | MIC [21]: 0.25 µg/mL (≈ 0.462 µM); MIC [22]: 1 µg/mL (≈ 1.85 µM); MIC [23]: 4 µg/mL (≈ 7.4 µM); MIC [24]: 0.125 µg/mL (≈ 0.231 µM); MIC [25]: 8 µg/mL (≈ 14.8 µM); MIC [26]: 4 µg/mL (≈ 7.4 µM); MIC [27]: 0.25 µg/mL (≈ 0.462 µM); MIC [28]: 0.5 µg/mL (≈ 0.925 µM); MIC [30]: > 128 µg/mL; MIC [31]: 8 µg/mL (≈ 14.8 µM); MIC [32]: 2 µg/mL (≈ 3.7 µM); MIC [33]: 2 µg/mL (≈ 3.7 µM); MIC [34]: 0.25 µg/mL (≈ 0.462 µM); MIC [35]: 16 µg/mL (≈ 29.6 µM); MIC [36]: 8 µg/mL (≈ 14.8 µM); MIC [37]: 128 µg/mL (≈ 237 µM)
